For three compounds, inhibition results are on record in US9255094B2, “Pyrido[4,3-B]indoles and methods of use” (Medivation Technologies, Inc., priority 2009, dated 2016).

SMILES strings stand for the structures.

Assay [1] addresses T1, rat adrenergic α1A receptor (Rattus norvegicus, UniProt P43140).
T1 construct: from tissue; host or cells: Wistar Rat submaxillary glands
T1 sequence (P43140 1-466): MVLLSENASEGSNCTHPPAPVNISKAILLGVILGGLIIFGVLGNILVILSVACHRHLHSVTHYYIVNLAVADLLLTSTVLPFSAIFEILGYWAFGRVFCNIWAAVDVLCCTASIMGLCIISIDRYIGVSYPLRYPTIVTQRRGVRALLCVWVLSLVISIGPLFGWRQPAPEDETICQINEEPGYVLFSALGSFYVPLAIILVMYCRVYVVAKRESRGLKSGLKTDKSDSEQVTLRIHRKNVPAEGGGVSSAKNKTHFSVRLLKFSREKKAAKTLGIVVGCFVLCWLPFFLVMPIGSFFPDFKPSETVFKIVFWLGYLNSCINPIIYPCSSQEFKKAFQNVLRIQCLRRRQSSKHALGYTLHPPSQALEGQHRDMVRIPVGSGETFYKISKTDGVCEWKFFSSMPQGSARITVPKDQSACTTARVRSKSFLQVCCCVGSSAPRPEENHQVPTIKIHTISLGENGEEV
As to the kind of experiment: Adrenergic α1A radioligand binding assay ([3H]Prozosin). The settings on record: compound at 0.1 μM; 0.25 nM [3H]Prozosin; Wistar Rat submaxillary glands; read-out: Percent Inhibition of ligand binding, Adrenergic (0.1 μM) a1A. The procedure: To evaluate in radioligand binding assays the activity of compounds of the invention, rat adrenergic α1A receptor obtained from Wistar Rat submaxillary glands (Michel, A. D. et al., Br. J. Pharmacol. 98:883, 1989) in a modified Tris-HCl buffer (50 mM Tris-HCl buffer, pH 7.4, 0.5 mM EDTA) is used. Compounds of the invention are incubated with 0.25 nM [^3H]Prozosin for 60 min at 25° C. Non-specific binding is estimated in the presence of 10 μM phentolamine. Receptor proteins are filtered and washed, the filters are then counted to determine [^3H]Prozosin specifically bound. Compounds of the invention are screened at 1 μM or lower, using 1% DMSO as vehicle. Compounds of the invention are tested in this biochemical assay and percent inhibition of specific binding is determined.

The target of assay [2] is T2, human recombinant adrenergic α2C receptor (Homo sapiens, UniProt P18825).
T2 construct: expressed in transfected cells; host or cells: insect Sf9 cells
T2 sequence (P18825 1-462): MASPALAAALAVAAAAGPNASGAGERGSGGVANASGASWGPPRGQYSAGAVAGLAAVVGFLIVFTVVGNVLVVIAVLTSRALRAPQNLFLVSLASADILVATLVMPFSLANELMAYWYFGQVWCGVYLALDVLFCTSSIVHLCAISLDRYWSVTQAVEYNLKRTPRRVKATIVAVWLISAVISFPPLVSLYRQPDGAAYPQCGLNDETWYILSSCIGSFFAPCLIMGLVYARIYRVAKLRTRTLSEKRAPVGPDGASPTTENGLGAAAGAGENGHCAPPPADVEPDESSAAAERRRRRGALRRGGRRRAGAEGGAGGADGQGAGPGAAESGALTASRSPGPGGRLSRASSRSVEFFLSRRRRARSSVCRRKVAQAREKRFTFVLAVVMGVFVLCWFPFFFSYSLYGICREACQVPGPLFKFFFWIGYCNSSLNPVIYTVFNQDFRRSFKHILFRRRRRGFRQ
As to the kind of experiment: Adrenergic α2C radioligand binding assay ([3H]MK-912). The settings on record: compound at 0.1 μM; 1 nM [3H]MK-912; insect Sf9 cells; read-out: Percent Inhibition of ligand binding, Adrenergic (0.1 μM) a2C. The method, then: To evaluate in radioligand binding assays the activity of compounds of the invention, human recombinant adrenergic α2C receptor expressed in insect Sf9 cells (Uhlen S et al. J. Pharmacol. Exp. Ther. 271:1558, 1994) in a modified Tris-HCl buffer (50 mM Tris-HCl, pH 7.4, 12.5 mM MgCl2, 2 mM EDTA) is used. Compounds of the invention are incubated with 1 nM [^3H]MK-912 for 60 min at 25° C. Non-specific binding is estimated in the presence of 10 μM WB-4101. Receptor proteins are filtered and washed, the filters are then counted to determine [^3H]MK-912 specifically bound. Compounds are screened at 1 μM or lower, using 1% DMSO as vehicle. Compounds of the invention are tested in this biochemical assay and percent inhibition of specific binding is determined.

Assay [3] concerns the target T3, human recombinant serotonin (5-Hydroxytryptamine) 5-HT2A receptor (Homo sapiens, UniProt P28223).
T3 construct: expressed in transfected cells; host or cells: Chinese hamster ovary (CHO-K1) cells
As to the kind of experiment: Serotonin 5-HT2A radioligand binding assay ([3H]Ketanserin). The settings on record: 0.5 nM [3H]Ketanserin, CHO-K1 cells; for inhibition at 1 µM: compound at 1 μM, read-out: Percent Inhibition of ligand binding, Serotonin (1 μM) 5-HT2A. The method, then:
Compounds of the invention were incubated with 0.5 nM [^3H]Ketanserin for 60 min at 25° C. Non-specific binding was estimated in the presence of 1 μM Mianserin. Receptor proteins were filtered and washed, the filters were then counted to determine [^3H]Ketanserin specifically bound. Compounds were screened at 1 μM or lower, using 1% DMSO as vehicle. Biochemical assay results are presented as the percent inhibition of specific binding in Table 4.

For assay [4], the target named is human recombinant dopamine D2L receptor (Homo sapiens, UniProt P14416). As to the kind of experiment: Dopamine D2L radioligand binding assay ([3H]Spiperone). The settings on record: compound at 1 μM, 0.16 nM [3H]Spiperone, CHO cells, read-out: Percent Inhibition of ligand binding, Dopamine (1μM). The procedure: Compounds of the invention were incubated with 0.16 nM [^3H]Spiperone for 120 min at 25° C. Non-specific binding was estimated in the presence of 10 μM Haloperidol. Receptor proteins were filtered and washed, the filters were then counted to determine [^3H]Spiperone specifically bound. Compounds were screened at 1 μM or lower, using 1% DMSO as vehicle. Biochemical assay results are presented as the percent inhibition of specific binding in Table 3.

The target of assay [5] is T4, human recombinant serotonin (5-Hydroxytryptamine) 5-HT6 receptor (Homo sapiens, UniProt P50406).
T4 construct: expressed in transfected cells; host or cells: human HeLa cells
The assay is described as follows: Serotonin 5-HT6 radioligand binding assay ([3H]LSD). The settings on record: compound at 1 μM, HeLa cells, read-out: Percent Inhibition of ligand binding, Serotonin (1 μM) 5-HT6. The procedure:
Compounds of the invention were incubated with 1.5 nM [3H]Lysergic acid diethylamide (LSD) for 120 min at 37° C. […] Receptor proteins were filtered and washed, the filters were then counted to determine [3H]LSD specifically bound. Compounds were screened at 1 μM or lower, using 1% DMSO as vehicle. Biochemical assay results are presented as the percent inhibition of specific binding in Table 4.

For assay [6], the target named is human recombinant serotonin (5-Hydroxytryptamine) 5-HT7 receptor (Homo sapiens, UniProt P34969). As to the kind of experiment: Serotonin 5-HT7 radioligand binding assay ([3H]LSD). The settings on record: compound at 1 μM; 5.5 nM [3H]LSD; CHO cells; read-out: Percent Inhibition of ligand binding, Serotonin (1 μM) 5-HT7. The method, then:
Compounds of invention were incubated with 5.5 nM [^3H] Lysergic acid diethylamide (LSD) for 2 h at 25° C. […] Receptor proteins were filtered and washed, the filters were then counted to determine [^3H]LSD specifically bound. Compounds were screened at 1 μM or lower, using 1% DMSO as vehicle. Biochemical assay results are presented as the percent inhibition of specific binding in Table 4.

Assay [7] concerns the target human recombinant histamine H1 receptor (Homo sapiens, UniProt P35367). As to the kind of experiment: Histamine H1 radioligand binding assay ([3H]Pyrilamine). The settings on record: compound at 1 μM, receptor expressed in CHO cells. The procedure: To evaluate in radioligand binding assays the activity of compounds of the invention, human recombinant histamine H1 receptor expressed in Chinese hamster ovary (CHO) cells (De Backer, M. D. et al., Biochem. Biophys. Res. Comm. 197(3):1601, 1993) in a modified Tris-HCl buffer (50 mM Tris-HCl, pH 7.4, 2 mM MgCl2, 100 mM NaCl, 250 mM Sucrose) was used. Compounds of the invention were incubated with 1.2 nM [^3H]Pyrilamine for 180 min at 25° C. Non-specific binding was estimated in the presence of 1 μM pyrilamine Receptor proteins were filtered and washed, the filters were then counted to determine [^3H]Pyrilamine specifically bound. Compounds were screened at 1 μM or lower, using 1% DMSO as vehicle. Biochemical assay results are presented as the percent inhibition of specific binding in Table 2.

Assay [8] deals with T5, human recombinant histamine H2 receptor (Homo sapiens, UniProt P25021).
T5 construct: expressed in transfected cells; host or cells: Chinese hamster ovary (CHO) K1 cells
As to the kind of experiment: Histamine H2 radioligand binding assay ([125I]Aminopotentidine). The settings on record: compound at 1 μM; 0.1 nM [125I]Aminopotentidine; receptor expressed in CHO-K1 cells. The procedure: To evaluate in radioligand binding assays the activity of compounds of the invention, human recombinant histamine H2 receptor expressed in Chinese hamster ovary (CHO) K1 cells (Ruat, M., Proc. Natl. Acad. Sci. USA. 87(5):1658, 1990) in a 50 mM Phosphate buffer, pH 7.4 was used. Compounds of the invention were incubated with 0.1 nM [^125I]Aminopotentidine for 120 min at 25° C. Non-specific binding was estimated in the presence of 3 μM Tiotidine. Receptor proteins were filtered and washed, the filters were then counted to determine [^125I]Aminopotentidine specifically bound. Compounds were screened at 1 μM or lower, using 1% DMSO as vehicle. Biochemical assay results are presented as the percent inhibition of specific binding in Table 2.

For assay [9], the target named is T6, human recombinant serotonin (5-Hydroxytryptamine) 5-HT2C receptor (Homo sapiens, UniProt P28335).
T6 construct: expressed in transfected cells; host or cells: Chinese hamster ovary (CHO-K1) cells
T6 sequence (P28335 33-458): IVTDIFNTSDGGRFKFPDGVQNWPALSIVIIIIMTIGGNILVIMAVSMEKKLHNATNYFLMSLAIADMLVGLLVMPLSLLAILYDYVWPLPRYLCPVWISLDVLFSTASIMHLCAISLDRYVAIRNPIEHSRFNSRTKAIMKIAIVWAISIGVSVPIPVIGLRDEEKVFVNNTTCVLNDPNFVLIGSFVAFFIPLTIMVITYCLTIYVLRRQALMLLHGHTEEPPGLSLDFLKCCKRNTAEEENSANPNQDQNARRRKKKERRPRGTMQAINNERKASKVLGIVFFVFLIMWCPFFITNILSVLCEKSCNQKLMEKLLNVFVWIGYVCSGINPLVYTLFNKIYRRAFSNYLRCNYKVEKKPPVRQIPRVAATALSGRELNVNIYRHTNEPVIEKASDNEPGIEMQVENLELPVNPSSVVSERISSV
The assay is described as follows: Serotonin 5-HT2C radioligand binding assay ([3H]Mesulergine). The settings on record: compound at 1 μM; 1 nM [3H]Mesulergine; CHO-K1 cells; read-out: Percent Inhibition of ligand binding, Serotonin (1 μM) 5-HT2C. The method, then:
Compounds of the invention were incubated with 1 nM [^3H]Mesulergine for 60 min at 25° C. Non-specific binding was estimated in the presence of 1 μM Mianserin. Receptor proteins were filtered and washed, the filters were then counted to determine [^3H]Mesulergine specifically bound. Compounds were screened at 1 μM or lower, using 1% DMSO as vehicle. Biochemical assay results are presented as the percent inhibition of specific binding in Table 4.

T3 sequence (P28223 whole entry): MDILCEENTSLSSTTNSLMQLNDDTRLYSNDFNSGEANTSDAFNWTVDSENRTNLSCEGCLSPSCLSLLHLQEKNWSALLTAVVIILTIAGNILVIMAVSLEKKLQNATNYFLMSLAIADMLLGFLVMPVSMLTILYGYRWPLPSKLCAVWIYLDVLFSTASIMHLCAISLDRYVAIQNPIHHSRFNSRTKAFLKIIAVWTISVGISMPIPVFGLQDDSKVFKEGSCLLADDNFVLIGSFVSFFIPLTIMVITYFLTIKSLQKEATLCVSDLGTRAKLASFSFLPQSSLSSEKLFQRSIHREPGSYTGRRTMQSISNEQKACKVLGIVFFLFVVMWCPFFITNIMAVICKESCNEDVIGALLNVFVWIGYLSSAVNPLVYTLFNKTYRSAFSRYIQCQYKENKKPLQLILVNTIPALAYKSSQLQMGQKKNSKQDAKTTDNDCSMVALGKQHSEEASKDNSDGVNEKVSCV
T5 sequence (P25021 whole entry): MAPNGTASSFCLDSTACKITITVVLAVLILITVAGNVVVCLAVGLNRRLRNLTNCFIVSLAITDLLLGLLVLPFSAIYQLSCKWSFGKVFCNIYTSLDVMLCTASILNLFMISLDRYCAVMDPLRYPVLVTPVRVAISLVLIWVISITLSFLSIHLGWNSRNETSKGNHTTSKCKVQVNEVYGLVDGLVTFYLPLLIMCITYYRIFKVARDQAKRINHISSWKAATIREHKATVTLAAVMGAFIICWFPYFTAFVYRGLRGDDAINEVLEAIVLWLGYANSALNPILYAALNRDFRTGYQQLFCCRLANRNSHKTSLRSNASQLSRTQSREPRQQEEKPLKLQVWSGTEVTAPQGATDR
Chain of human recombinant serotonin (5-Hydroxytryptamine) 5-HT7 receptor (P34969 whole entry): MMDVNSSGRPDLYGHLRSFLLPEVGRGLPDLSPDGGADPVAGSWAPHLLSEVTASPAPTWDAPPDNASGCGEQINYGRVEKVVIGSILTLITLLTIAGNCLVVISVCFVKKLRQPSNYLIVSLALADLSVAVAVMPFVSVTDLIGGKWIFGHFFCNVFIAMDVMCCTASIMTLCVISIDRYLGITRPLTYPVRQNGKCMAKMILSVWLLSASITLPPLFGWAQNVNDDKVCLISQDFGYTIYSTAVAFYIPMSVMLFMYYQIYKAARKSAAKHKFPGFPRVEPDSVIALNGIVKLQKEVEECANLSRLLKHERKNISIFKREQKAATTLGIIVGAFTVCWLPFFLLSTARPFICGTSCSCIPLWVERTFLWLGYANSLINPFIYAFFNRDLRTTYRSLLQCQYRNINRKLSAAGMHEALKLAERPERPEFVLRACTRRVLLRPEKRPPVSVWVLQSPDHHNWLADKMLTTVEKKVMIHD
T4 sequence (P50406 whole entry): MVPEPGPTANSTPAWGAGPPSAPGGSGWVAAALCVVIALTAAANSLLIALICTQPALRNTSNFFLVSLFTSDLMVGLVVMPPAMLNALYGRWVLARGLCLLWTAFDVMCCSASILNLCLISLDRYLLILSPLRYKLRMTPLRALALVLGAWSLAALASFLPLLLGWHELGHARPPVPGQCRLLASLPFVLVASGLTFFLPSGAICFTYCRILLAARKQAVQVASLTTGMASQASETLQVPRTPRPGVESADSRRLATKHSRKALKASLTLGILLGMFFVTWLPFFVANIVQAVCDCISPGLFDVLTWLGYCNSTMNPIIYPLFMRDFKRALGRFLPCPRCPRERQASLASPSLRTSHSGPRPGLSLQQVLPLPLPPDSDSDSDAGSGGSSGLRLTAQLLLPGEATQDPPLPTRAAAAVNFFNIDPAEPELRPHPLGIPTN
Chain of human recombinant histamine H1 receptor (P35367 whole entry): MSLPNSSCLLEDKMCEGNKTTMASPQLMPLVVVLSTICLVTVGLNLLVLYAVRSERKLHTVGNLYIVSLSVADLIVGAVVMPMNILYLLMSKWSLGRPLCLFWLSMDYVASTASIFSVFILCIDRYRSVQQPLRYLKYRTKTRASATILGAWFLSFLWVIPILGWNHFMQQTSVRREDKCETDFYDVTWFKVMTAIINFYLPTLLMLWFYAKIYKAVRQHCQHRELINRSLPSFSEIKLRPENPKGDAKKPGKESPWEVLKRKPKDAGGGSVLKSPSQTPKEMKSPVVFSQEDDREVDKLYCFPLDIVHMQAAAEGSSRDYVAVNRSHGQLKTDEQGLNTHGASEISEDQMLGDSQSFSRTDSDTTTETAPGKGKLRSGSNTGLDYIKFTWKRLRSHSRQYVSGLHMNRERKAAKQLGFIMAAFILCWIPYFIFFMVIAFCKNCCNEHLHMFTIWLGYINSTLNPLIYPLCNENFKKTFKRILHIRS
Chain of human recombinant dopamine D2L receptor (P14416 whole entry): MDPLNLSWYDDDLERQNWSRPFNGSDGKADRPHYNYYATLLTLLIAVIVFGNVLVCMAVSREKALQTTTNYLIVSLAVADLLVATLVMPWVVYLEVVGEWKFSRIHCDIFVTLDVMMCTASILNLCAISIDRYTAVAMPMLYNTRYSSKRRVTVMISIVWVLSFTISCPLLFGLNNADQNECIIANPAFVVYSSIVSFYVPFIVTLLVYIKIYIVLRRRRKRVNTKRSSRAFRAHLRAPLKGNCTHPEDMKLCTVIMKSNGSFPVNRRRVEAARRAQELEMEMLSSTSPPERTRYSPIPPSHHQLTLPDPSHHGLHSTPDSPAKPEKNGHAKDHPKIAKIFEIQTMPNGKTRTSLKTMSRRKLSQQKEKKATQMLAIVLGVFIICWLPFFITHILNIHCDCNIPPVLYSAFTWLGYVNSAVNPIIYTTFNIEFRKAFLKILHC

The term inhibition denotes the drop in the measured response relative to a control, in per cent. Take `COc1ccc([C@@](C)(O)Cn2c3c(c4cc(C)ccc42)CN(C)CC3)cc1` [Compound 1-19, (R)-1-(2,8-Dimethyl-3,4-dihydro-1H-pyrido[4,3-b]indol-5(2H)-yl)-2-(4-methoxyphenyl)propan-2-ol]: the inhibition at 0.1 µM in assay [1] is 20%; in assay [2], 16%; in assay [3] (compound at 0.1 μM, read-out: Percent Inhibition of ligand binding, Serotonin (0.1 μM) 5-HT2A) it was 98%.
Turning to `Cc1ccc2c(c1)c1c(n2CCc2ccc(C)nc2)CCN(CCCCO)C1` [Compound 1-43, 4-(8-methyl-5-(2-(6-methylpyridin-3-yl)ethyl)-3,4-dihydro-1H-pyrido[4,3-b]indol-2(5H)-yl)butan-1-ol], the inhibition at 1 µM worked out at 10% in assay [4]; 22% in assay [5]; 66% in [6]; 97% in assay [7]; 21% in assay [8]; 49% in assay [9]. Also, in assay [3], the inhibition at 1 µM turned out to be 47%.
As to `CN1CCc2c(c3cccc(Cl)c3n2CC(C)(O)c2ccncc2)C1` (stereo not shown) [Compound 1-10, 1-(6-chloro-2-methyl-3,4-dihydro-1H-pyrido[4,3-b]indol-5(2H)-yl)-2-(pyridin-4-yl)propan-2-ol], the inhibition at 0.1 µM in assay [1] is -8%; in [2], 19%. Further, the inhibition at 1 µM in assay [3] worked out at 91%.
